# Where two headings read alike, the source gives them in different places.
# Experiments:
# [1] = molecular target: T1, full-length beta-Catenin (Uniprot ID P35222) (Homo sapiens, UniProt P35222); experiment: Fluorescence polarization IC50 (beta-catenin / 5FAM-TCF4 10-53 competition); assay type: binding
# T1 construct: 10 nM full-length beta-Catenin (Uniprot ID P35222)
# T1 sequence (P35222 1-781): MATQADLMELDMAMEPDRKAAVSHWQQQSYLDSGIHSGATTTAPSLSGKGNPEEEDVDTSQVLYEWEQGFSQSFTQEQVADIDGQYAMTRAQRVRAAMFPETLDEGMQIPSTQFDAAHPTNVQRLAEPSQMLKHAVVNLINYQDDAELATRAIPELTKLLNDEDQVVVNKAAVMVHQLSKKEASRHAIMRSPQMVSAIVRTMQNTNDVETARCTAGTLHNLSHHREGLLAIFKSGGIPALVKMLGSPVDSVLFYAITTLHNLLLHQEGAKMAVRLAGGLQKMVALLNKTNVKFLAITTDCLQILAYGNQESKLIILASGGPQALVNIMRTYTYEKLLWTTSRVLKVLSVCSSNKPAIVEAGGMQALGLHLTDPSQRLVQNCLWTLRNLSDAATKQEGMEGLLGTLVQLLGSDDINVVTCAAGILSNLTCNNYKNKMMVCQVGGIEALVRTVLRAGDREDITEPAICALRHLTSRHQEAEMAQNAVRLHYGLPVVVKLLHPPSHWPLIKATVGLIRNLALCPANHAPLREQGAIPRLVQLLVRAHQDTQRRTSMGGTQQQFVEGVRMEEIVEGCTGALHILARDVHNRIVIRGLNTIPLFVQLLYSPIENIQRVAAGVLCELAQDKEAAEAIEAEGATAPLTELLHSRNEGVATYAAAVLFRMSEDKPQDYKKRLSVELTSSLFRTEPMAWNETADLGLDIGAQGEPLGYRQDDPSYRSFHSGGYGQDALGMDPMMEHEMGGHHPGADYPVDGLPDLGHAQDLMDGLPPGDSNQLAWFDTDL
# CHI Log D procedure = assay type: physicochemical; settings: for chromatographic logD: pH 7.4, CHI Log D; for CHI Log D: pH 7.4
# [2] = molecular target: T2, beta-catenin/TCF4 engagement (Homo sapiens, UniProt P35222); experiment: Nano-BRET target engagement assay (B-cat-Halo & TCF4-Luc in HEK293 cells); assay type: cell-based; settings: for inhibition at 10 µM: read-out: NanoBRET % inh @ 10 uM
# T2 construct: expressed in transfected cells; host or cells: HEK293
# T2 sequence (P35222 1-781): T1 sequence (P35222 1-781)
# Solubility in PBS = assay type: physicochemical
# Method in brief: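 The PBS solution was ultracentrifuged and the supernatant analyzed by HPLC. Its peak area was divided by that of a 50 μM peptide DMSO reference injection and multiplied by 50 uM to give solubility.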
# [3] = fluorescence polarization, read-out: beta-Catenin FP IC50
# [4] = absolute IC50, read-out: NanoBRET Abs IC50
chromatographic logD (CHI Log D procedure),"IC50 [2, 4] [nM]",Solubility (Solubility in PBS; Solubility (uM)) [µM],IC50 ([1]; read-out: beta-Catenin FP IC50) [nM],IC50 ([2]; read-out: NanoBRET Abs IC50) [nM],Solubility (Solubility in PBS) [µM],SMILES,further results
2.47,17000,28,,,,"CC(=O)N1CCC[C@]12CC=CCCCC1(CCCC=CCCCCCC[C@@](C)(C(=O)N[C@@H](Cc3ccccc3)C(=O)N[C@@H](Cc3csc4ccccc34)C(=O)N[C@@H](Cc3c[nH]cn3)C(N)=O)NC(=O)[C@H](CC(N)=O)NC(=O)[C@H](Cc3ccccc3)NC(=O)[C@H](C)NC(=O)[C@H](C)NC(=O)[C@H](CCC(=O)O)NC(=O)[C@H](CC(=O)O)NC1=O)NC(=O)[C@H](CC(C)C)NC(=O)[C@H](CC(=O)O)NC2=O (stereo partly drawn) [I-543, Ac-PL3-Asp-Leu-B5-Asp-Glu-Ala-Ala-Phe-Asn-S8-Phe-BztA-His-NH2]","IC50 [1, 3]: 32 nM"
2.51,,,28,> 20000,10,"CC(=O)N1CCC[C@]12CC=CCCCC1(CCCC=CCCCOC(=O)N3CC[C@@](C(=O)N[C@@H](Cc4ccsc4)C(=O)N[C@@H](Cc4csc5ccccc45)C(=O)N[C@@H](Cc4c[nH]cn4)C(N)=O)(C3)NC(=O)[C@H](CC(N)=O)NC(=O)[C@H](Cc3ccccc3)NC(=O)[C@H](C)NC(=O)[C@H](C)NC(=O)[C@H](CC(C)C)NC(=O)[C@H](CC(=O)O)NC1=O)NC(=O)[C@H](CC(C)(C)C)NC(=O)[C@H](CC(=O)O)NC2=O (stereo partly drawn) [I-847, Ac-PL3-Asp-Npg-B5-Asp-Leu-Ala-Ala-Phe-Asn-PyrS2-3Thi-BztA-His-NH2]",
2.29,,21,6,14500,,"CC(=O)N1CCC[C@]12CC=CCCCC1(CCCC=CCCCOC(=O)N3CC[C@@](C(=O)N[C@@H](Cc4ccccc4Cl)C(=O)N[C@@H](Cc4csc5ccccc45)C(=O)N[C@@H](Cc4c[nH]cn4)C(N)=O)(C3)NC(=O)[C@H](CC(N)=O)NC(=O)[C@H](Cc3ccccc3)NC(=O)[C@H](C)NC(=O)[C@H](C)NC(=O)[C@H](CC(=O)O)NC(=O)[C@H](CC(=O)O)NC1=O)NC(=O)[C@H](CC(C)(C)C)NC(=O)[C@H](CC(=O)O)NC2=O (stereo partly drawn) [I-784, Ac-PL3-Asp-Npg-B5-Asp-Asp-Ala-Ala-Phe-Asn-PyrS2-2C1F-BztA-His-NH2]","inhibition at 10 µM ([2]; HEK293, @ 10 uM): 35.1%; IC50 ([2]; read-out: NanoBRET IC50): 12100 nM"
2.03,,,5,7500,50,"CC(=O)N1CCC[C@]12CC=CCCCC1(CCCC=CCCCOC(=O)N3CC[C@@](C(=O)N[C@@H](Cc4ccsc4)C(=O)N[C@@H](Cc4csc5ccccc45)C(=O)N[C@@H](CCC(N)=O)C(=O)N[C@@H](C)C(N)=O)(C3)NC(=O)[C@H](CC(N)=O)NC(=O)[C@H](Cc3ccccc3)NC(=O)[C@H](C)NC(=O)[C@H](C)NC(=O)[C@H](CC(=O)O)NC(=O)[C@H](CC(=O)O)NC1=O)NC(=O)[C@H](CC(C)(C)C)NC(=O)[C@H](CC(=O)O)NC2=O (stereo partly drawn) [I-819, Ac-PL3-Asp-Npg-B5-Asp-Asp-Ala-Ala-Phe-Asn-PyrS2-3Thi-BztA-Gln-Ala-NH2]","inhibition at 10 µM ([2]; HEK293, 10 uM): 37.8%"
1.37,,46,14,> 20000,,"CC(=O)N1CCC[C@]12CC=CCCCC1(CCCC=CCCCOC(=O)N3CC[C@@](C(=O)N[C@@H](Cc4ccsc4)C(=O)N[C@@H](Cc4csc5ccccc45)C(=O)N[C@@H](CCC(N)=O)C(N)=O)(C3)NC(=O)[C@H](CC(N)=O)NC(=O)[C@H](Cc3ccccc3)NC(=O)[C@H](CCCCNC(=O)CN3CCN(C)CC3)NC(=O)[C@H](C)NC(=O)[C@H](CC(=O)O)NC(=O)[C@H](CC(=O)O)NC1=O)NC(=O)[C@H](CC(C)(C)C)NC(=O)[C@H](CC(=O)O)NC2=O (stereo partly drawn) [I-887, Ac-PL3-Asp-Npg-B5-Asp-Asp-Ala-[MePipAc]Lys-Phe-Asn-PyrS2-3Thi-BztA-Gln-NH2]",
,26000,,,,26,"CC(=O)N1CCC[C@]12CC=CCCCC1(CCCC=CCCCCCC[C@@](C)(C(=O)N[C@@H](Cc3ccccc3)C(=O)N[C@@H](Cc3csc4ccccc34)C(=O)N[C@@H](Cc3c[nH]cn3)C(N)=O)NC(=O)[C@H](CC(N)=O)NC(=O)[C@H](Cc3ccccc3)NC(=O)[C@H](C)NC(=O)[C@H](C)NC(=O)[C@H](CC(=O)O)NC(=O)[C@H](CC(=O)O)NC1=O)NC(=O)[C@H](CC(C)C)NC(=O)[C@H](CC(=O)O)NC2=O (stereo partly drawn) [I-565, Ac-PL3-Asp-Leu-B5-Asp-Asp-Ala-Ala-Phe-Asn-S8-Phe-BztA-His-NH2]","IC50 [1, 3]: 13 nM; IC50 ([1]; read-out: FP EC50): 13 nM; CHI Log D (CHI Log D procedure): 2.435"
2.27,9300,,8,,50,"CC(=O)N1CCC[C@]12CC=CCCCC1(CCCC=CCCCOC(=O)N3CC[C@@](C(=O)N[C@@H](Cc4ccccc4Cl)C(=O)N[C@@H](Cc4csc5ccccc45)C(=O)N[C@@H](CCC(N)=O)C(N)=O)(C3)NC(=O)[C@H](CC(N)=O)NC(=O)[C@H](Cc3ccccc3)NC(=O)[C@H](C)NC(=O)[C@H](C)NC(=O)[C@H](CC(=O)O)NC(=O)[C@H](CC(=O)O)NC1=O)NC(=O)[C@H](CC1CCCCC1)NC(=O)[C@H](CC(=O)O)NC2=O (stereo partly drawn) [I-1040, Ac-PL3-Asp-Cha-B5-Asp-Asp-Ala-Ala-Phe-Asn-PyrS2-2C1F-BztA-Gln-NH2]",
1.49,,,16,> 20000,,"CC(=O)N1CCC[C@]12CC=CCCCC1(CCCC=CCCCOC(=O)N3CC[C@@](C(=O)N[C@@H](Cc4ccsc4)C(=O)N[C@@H](Cc4csc5ccccc45)C(=O)N[C@@H](CCC(N)=O)C(N)=O)(C3)NC(=O)[C@H](CC(N)=O)NC(=O)[C@H](Cc3ccccc3)NC(=O)[C@H](CCCCNC(=O)c3ccc(CN4CCN(C)CC4)cc3)NC(=O)[C@H](C)NC(=O)[C@H](CC(=O)O)NC(=O)[C@H](CC(=O)O)NC1=O)NC(=O)[C@H](CC(C)(C)C)NC(=O)[C@H](CC(=O)O)NC2=O (stereo partly drawn) [I-889, Ac-PL3-Asp-Npg-B5-Asp-Asp-Ala-[4MePipBz]Lys-Phe-Asn-PyrS2-3Thi-BztA-Gln-NH2]",solubility at 15 min (Solubility in PBS; Solubility (uM)): 41 µM
2.12,23900,49,5,,,"CC(=O)N1CCC[C@]12CC=CCCCC1(CCCC=CCCCOC(=O)N3CC[C@@](C(=O)N[C@@H](Cc4ccccc4Cl)C(=O)N[C@@H](Cc4csc5ccccc45)C(=O)N[C@@H](CCC(N)=O)C(N)=O)(C3)NC(=O)[C@H](CO)NC(=O)[C@H](Cc3ccccc3)NC(=O)[C@H](C)NC(=O)[C@H](C)NC(=O)[C@H](CC(=O)O)NC(=O)[C@H](CC(=O)O)NC1=O)NC(=O)[C@H](Cc1ccccc1)NC(=O)[C@H](CC(=O)O)NC2=O (stereo partly drawn) [I-1045, Ac-PL3-Asp-Phe-B5-Asp-Asp-Ala-Ala-Phe-Ser-PyrS2-2C1F-BztA-Gln-NH2]",
,14700,,,,21,"CC(=O)N1CCC[C@]12CC=CCCCC1(CCCC=CCCCOC(=O)N3CC[C@@](C(=O)N[C@@H](Cc4ccsc4)C(=O)N[C@@H](Cc4csc5ccccc45)C(=O)N[C@@H](Cc4c[nH]cn4)C(N)=O)(C3)NC(=O)[C@H](CC(N)=O)NC(=O)[C@H](Cc3ccccc3)NC(=O)[C@H](C)NC(=O)[C@H](C)NC(=O)[C@H](CCC(=O)O)NC(=O)[C@H](CC(=O)O)NC1=O)NC(=O)[C@H](CC(C)(C)C)NC(=O)[C@H](CC(=O)O)NC2=O (stereo partly drawn) [I-697, Ac-PL3-Asp-Npg-B5-Asp-Glu-Ala-Ala-Phe-Asn-PyrS2-3Thi-BztA-His-NH2]","IC50 [1, 3]: 5 nM; CHI Log D (CHI Log D procedure): 2.093"
2.3,,23,20,8100,,"CC(=O)N1CCC[C@]12CC=CCCCC1(CCCC=CCCCOC(=O)N3CC[C@@](C(=O)N[C@@H](Cc4ccccc4)C(=O)N[C@@H](Cc4csc5ccccc45)C(=O)N[C@@H](CCC(N)=O)C(N)=O)(C3)NC(=O)[C@H](CC(C)C)NC(=O)[C@H](Cc3cccc(C(F)(F)F)c3)NC(=O)[C@H](C)NC(=O)[C@H](C)NC(=O)[C@H](CC(=O)O)NC(=O)[C@H](CC(=O)O)NC1=O)NC(=O)[C@H](CC(C)(C)C)NC(=O)[C@H](CC(=O)O)NC2=O (stereo partly drawn) [I-1128, Ac-PL3-Asp-Npg-B5-Asp-Asp-Ala-Ala-3F3MeF-Leu-PyrS2-Phe-BztA-Gln-NH2]",

# From patent publication US20240116985A1, “STAPLED PEPTIDES AND METHODS THEREOF” (priority 2020, published 2024)
